Data reported in US11905255B1, “Solid state forms of (S)-2-(((S)-6,8-difluoro-1,2,3,4-tetrahydronaphthalen-2-yl)amino)-N-(1-(2-methyl-1-(neopentylamino)propan-2-yl)-1H-imidazol-4-yl)pentanamide and uses thereof” (Pfizer Inc., priority 2019, dated 2024).
Like-named read-outs stand apart in the source and are kept apart here. Each block holds one molecule with its values, some of them ahead of it.

Key:
[1] = Drying experiments on selected materials, solid form by XRPD; format: physicochemical
Source text: Table 6 summarizes the drying conditions for selected materials. • (a) Temperature, RH, and duration of experiments are approximate.

[2] = Experimental: Weighed samples of material were treated with aliquots of specified solvents at ambient temperature. Samples were typically sonicated between additions to facilitate dissolution. Complete dissolution was observed through visual inspection. Solubility was calculated based on the total amount of solvent added to achieve complete dissolution and may be greater than the value reported due to incremental solvent addition and the inherent kinetics of dissolution. If dissolution was not observed, values are reported as “less than”. If dissolution was observed upon the first addition of solvent, values are reported as “greater than”.
• (a) Solubility estimated using solvent addition method via visual assessment of samples. Values are rounded to nearest whole number and reported as “<” if dissolution was not observed. • (b) non-cGMP samples.

[3] = 3 weeks slurry, gravimetric
Experimental: After approximately 24 hours, solids were isolated by centrifugation using eppendorf centrifuge tubes equipped with a 0.45 μm nylon filter. […] Equilibrium solubility of solids isolated were determined gravimetrically as follows. Measured aliquots of mother liquor solutions from the 3-week slurries were place in pre-weighed aluminum TGA pans. Subsequently, solvents were evaporated under ambient conditions or using vacuum. Remaining solids were weighed. • (a) Experiments were conducted for a total of ˜1 week and ˜3 weeks, both with solvent replacement after ˜1 day of slurrying. Solvent ratios (v/v) and duration of experiments are approximate.

- XRPD Results after drying ([1]; Dried on P2O5, RT, 17 days, RH at prep.: 3%, RH at run: 43%, cell continues: selected peaks slightly shifted): Consistent with Form D,
Structure (SMILES): Br.Br.CCC[C@H](N[C@H]1CCc2cc(F)cc(F)c2C1)C(=O)Nc1cn(C(C)(C)CNCC(C)(C)C)cn1 [Form D, (S)-2-(((S)-6,8-difluoro-1,2,3,4-tetrahydronaphthalen-2-yl)amino)-N-(1-(2-methyl-1-(neopentylamino)propan-2-yl)-1H-imidazol-4-yl)pentanamide]

- Solubility Estimate (a) [2]: <1 mg/mL
Structure (SMILES): Br.Br.CCC[C@H](N[C@H]1CCc2cc(F)cc(F)c2C1)C(=O)Nc1cn(C(C)(C)CNCC(C)(C)C)cn1 [dihydrobromide salt of Compound 1, dihydrobromide salt of (s)-2-(((s)-6,8-difluoro-1,2,3,4-tetrahydronaphthalen-2-yl)amino)-n-(1-(2-methyl-1-(neopentylamino)propan-2-yl)-1h-imidazol-4-yl)pentanamide]

- XRPD Results after drying ([1]; VO, 75° C., 1 day): Consistent with Form D
- XRPD Results after drying ([1]; VO, 77° C., 1 day): Consistent with Form F;
Structure (SMILES): Br.Br.CCC[C@H](N[C@H]1CCc2cc(F)cc(F)c2C1)C(=O)Nc1cn(C(C)(C)CNCC(C)(C)C)cn1 [Form F, (S)-2-(((S)-6,8-difluoro-1,2,3,4-tetrahydronaphthalen-2-yl)amino)-N-(1-(2-methyl-1-(neopentylamino)propan-2-yl)-1H-imidazol-4-yl)pentanamide]

- Solubility (b) ([3]; DMF/ACN (65/35), ambient): 10 mg/mL
- Solubility (b) ([3]; DMF/IPA (60/40), ambient): 13 mg/mL
- Solubility (b) ([3]; DMF/MIBK (85/15), ambient): 19 mg/mL
- Solubility (b) ([3]; Dioxane/H2O (70/30), ambient): 24 mg/mL
- Solubility (b) ([3]; EtOH/H2O (60/40), ambient): 36 mg/mL
- Solubility (b) ([3]; H2O, ambient): 14 mg/mL
- Solubility (b) ([3]; MEK/DMF (20/80), ambient): 17 mg/mL
- Solubility (b) ([3]; MeOH (anhydrous), 2-8° C. (cold room)): 13 mg/mL
- Solubility (b) ([3]; MeOH/Acetone (anhydrous) (50/50), ambient): 7 mg/mL
- Solubility (b) ([3]; MeOH/EtOAc (anhydrous) (70/30), ambient): 6 mg/mL
- Solubility (b) ([3]; MeOH/H2O (20/80), ambient): 17 mg/mL
- Solubility (b) ([3]; NMP/Acetone (anhydrous) (85/15), ambient): 36 mg/mL
- Solubility (b) ([3]; PG, ambient): 8 mg/mL
- Solubility (b) ([3]; THF/H2O (85/15), ambient): 25 mg/mL
Structure (SMILES): Br.Br.CCC[C@H](N[C@H]1CCc2cc(F)cc(F)c2C1)C(=O)Nc1cn(C(C)(C)CNCC(C)(C)C)cn1 [Form A, (S)-2-(((S)-6,8-difluoro-1,2,3,4-tetrahydronaphthalen-2-yl)amino)-N-(1-(2-methyl-1-(neopentylamino)propan-2-yl)-1H-imidazol-4-yl)pentanamide]
